In ChEMBL document CHEMBL3886662, “Acid addition salt of substituted pyridine compound” (2016) one finds IC50 data, which are given here for 1 molecule.

Each structure is given as a SMILES string. “And” between values parts separate entries of the source, which are not always exact repeats. Equal entries are not always repeated.

This assay concerns the target T1, Cholesteryl ester transfer protein (Homo sapiens, UniProt P11597).
T1 sequence (P11597 whole entry): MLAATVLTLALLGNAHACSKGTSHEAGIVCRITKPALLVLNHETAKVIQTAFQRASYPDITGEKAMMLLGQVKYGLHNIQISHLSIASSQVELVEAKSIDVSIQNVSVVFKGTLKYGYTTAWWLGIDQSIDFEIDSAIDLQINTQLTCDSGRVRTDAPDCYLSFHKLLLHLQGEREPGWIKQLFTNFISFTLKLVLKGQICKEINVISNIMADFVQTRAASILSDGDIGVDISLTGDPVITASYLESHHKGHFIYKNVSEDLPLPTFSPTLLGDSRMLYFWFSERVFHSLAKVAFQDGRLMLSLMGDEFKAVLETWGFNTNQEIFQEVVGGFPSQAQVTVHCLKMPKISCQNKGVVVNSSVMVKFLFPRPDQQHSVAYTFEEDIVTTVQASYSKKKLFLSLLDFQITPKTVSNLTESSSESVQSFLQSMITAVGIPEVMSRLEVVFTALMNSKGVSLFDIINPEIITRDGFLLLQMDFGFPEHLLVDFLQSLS
As to the kind of experiment: CETP Inhibition Assay: A recombinant human CETP protein (manufactured by Roar Biomedical Inc.; 4.5 ng), the acceptor lipoprotein described in (2) above (32.5 μg) and 5,5'-dithio-bis-(2-nitrobenzoic acid) (7 mM, 15 μl) were taken in a 96 well plate and the total amount of the mixture was adjusted to 48.5 μl with the PBS solution. The test compound [DMSO solution (concentration: 0.15, 0.5, 1.5, 5, 15, 50, 150 and 500 μM); 1.5 μl] was added to each well and the mixture was incubated in a thermostatic bath at 37 °C. for 60 minutes. The reconstituted HDL (50 μl) described in (1) above was added to each well and the mixture was reacted in a thermostatic bath at 37 °C. for 60 minutes. The 96 well plate was moved onto ice and a precipitation reagent [a mixed solution of magnesium chloride (60 mM) and 0.1% dextran sulfate[1/1(v/v)]; 15 μl] was added to each well, and then the mixture was allowed to stand on ice for 15 minutes. The reaction solution (80 μl) in each well was moved to a filter plate and centrifuged at 1500 rpm for 1 minute, and the filtrate which passed through the filter was designated as the HDL fraction and the radioactivity thereof was measured with a scintillation counter.

What is called IC50 is the concentration at which inhibition is half-maximal. As to `CC(C)(O)CCOc1cnc(N2CCC(c3nc4c(c(C5CCC(F)(F)CC5)c3[C@@H](F)c3ccc(C(F)(F)F)cc3)[C@@H](O)CC(C)(C)C4)CC2)nc1`, the IC50 was 0.0178 µM and 0.0213 µM.
